Where two headings read alike, the source gives them in different places.
What was measured:
[1] = system: Leishmania donovani promastigotes; assay: Promastigote susceptibility assay (resazurin), L. donovani; assay type: cell-based; conditions: for IC50: Table S2, promastigotes, 48 h
Protocol: (§1) The following species of Leishmania were used: L. donovani (MHOM/IN/80/DD8), which was purchased (ATCC, Manassas, VA, USA), and L. amazonensis (MHOM/Br/79/Maria), which was kindly provided by Prof. Alfredo Toraño (Instituto de Salud Carlos III, Madrid, Spain). Promastigotes were cultured in Schneider’s Insect Medium supplemented with 10% heat-inactivated Fetal Bovine Serum (FBS) (SIGMA-Merck, Madrid, Spain) and 1000 U/L of penicillin plus 100 mg/L of streptomycin in 25 mL culture flasks at 26 °C.
(§2) The activity of the compounds on Leishmania promastigotes was performed according to the method previously reported by us. Briefly, promastigotes (2.5 × 10^5 parasites/well) were cultured in 96-well plastic plates. The compounds were dissolved in dimethylsulfoxide (DMSO). Serial dilutions at 1:2 of the test compounds in fresh culture medium were performed (100, 50, 25, 12.5, 6.25, 3.12, 1.56 and 0.78 µg/mL) in a final volume of 200 µL; the solutions were then added to the parasite suspension. After an incubation period of 48 h at 26 °C, a volume of 20 μL of 2.5 mM resazurin solution in PBS was added and the plates were incubated for 3 h under the same conditions. Finally, the Relative Fluorescence Unit (RFU) (535ex–590em nm wavelength) was determined in a fluorimeter (Infinite 200 Tecan i-Control). Growth inhibition (%) was calculated by 100—[(RFU treated wells—RFU signal-to-noise)/(RFU untreated—RFU signal-to-noise) × 100]. All tests were carried out in triplicate and the IC50 was calculated by probit analysis using SPSS 17.0 Statistics Software. Miltefosine (Sigma-Merck, Madrid, Spain) was used as the reference drug.

[2] = system: Leishmania amazonensis promastigotes; assay: Promastigote susceptibility assay (resazurin), L. amazonensis; assay type: cell-based
Protocol: as §1, §2

[3] = system: Leishmania donovani amastigotes; assay: Intracellular amastigote assay in J774 macrophages, L. donovani; assay type: cell-based; conditions: for IC50: Table S3, intracellular amastigotes, 48 h
Protocol: (§3) We performed an intracellular amastigote assay on L. amazonensis and L. donovani according to a fluorometric method reported by us. To carry out the in vitro macrophage infections, 5 × 10^4 cells were cultured in RPMI-1640 medium and then were infected with 5 × 10^5 promastigotes. In the L. donovani assays, the plates were incubated for 48 h at 37 °C, while in the L. amazonensis assays, they were incubated at 33 °C for the first 24 h and then the temperature was increased to 37 °C for the next 24 h. After, the culture medium was removed and the cells were washed with buffered RPMI-HEPES at pH 7.4 several times in order to eliminate the non-internalized promastigotes. A total of 100 µL of fresh medium tempered at 37 °C was added to the infected cells, which then were exposed to 100 µL of the test compounds in RPMI-1640 at different concentrations (100, 50, 25, 12.5, 6.25, 3.12, 1.56 and 0.78 µg/mL in a final volume of 200 µL) for 48 h at 37 °C. The culture medium was removed by centrifugation at 3500 rpm for 5 min (Centrifuge 5403 Eppendorf) and a lysis solution (0.02% sodium dodecyl sulfate in RPMI-HEPES) was added. After 20 min, the treated cells were harvested (centrifugation at 3500 rpm for 5 min at 4 °C) and the supernatants were replaced by 200 μL of fresh Schneider’s culture medium. The plates were then incubated at 26 °C for another 3 days to allow for the transformation of viable amastigotes into promastigotes and proliferation. Afterwards, 20 μL/well of 2.5 mM resazurin was added and incubated for another 3 h. Finally, URF was measured and IC50 was estimated as described above. All tests were carried out in triplicate. Miltefosine was used as the reference drug.

[4] = system: Leishmania amazonensis amastigotes; assay: Intracellular amastigote assay in J774 macrophages, L. amazonensis; assay type: cell-based; conditions: for L. amazonensis amastigote selectivity index (SI): SI = CC50 (J774 macrophages)/IC50
Protocol: as §3

[5] = Cytotoxicity assay on macrophages (resazurin); assay type: cell-based, murine; conditions: mouse, J774 macrophages, 24 h exposure, read-out: Toxicity against J774 macrophages CC50
Protocol: (§4) J774 murine macrophages were grown in RPMI-1640 medium (Sigma) supplemented with 10% heat-inactivated FBS (30 min at 56 °C) (SIGMA-Merck), penicillin G (100 U/mL) and streptomycin (100 µg/mL). For the experiments, cells in the pre-confluence phase were harvested with trypsin. Cell cultures were maintained at 37 °C in a humidified environment with 5% CO2.
(§5) Cell viability was evaluated using a modification with resazurin of the colorimetric method described previously. J774 macrophages were seeded (5 × 10^4 cells/well) in 96-well flat-bottom microplates with 100 µL of RPMI-1640 medium. The cells were allowed to adhere for 4 h at 37 °C in 5% CO2, then different concentrations of the test compounds in 100 µL of the medium were added and exposed for 24 h. Growth controls were also included. To evaluate cell viability, 20 µL of a 2.5 mM resazurin solution was added and the plates were returned to the incubator for another 3 h. The reduction in resazurin was determined by measuring the fluorescence intensity (excitation wavelength, 535 nm; emission wavelength, 590 nm). Each concentration was assayed three times. The medium and controls were used in each test as blanks. The cytotoxic effect of the compounds was defined as the 50% reduction in cell viability of treated culture cells with respect to the untreated culture (CC50).

[6] = system: Mycobacterium tuberculosis H37Rv; assay: In vitro activity against Mycobacterium tuberculosis H37Rv, microdilution AlamarBlue broth assay (BacTiter-Glo alternative read-out); assay type: cell-based; conditions: Table S1, Mtb H37Rv; for IC50: read-out: IC50, antibacterial activity against Mtb H37Rv; for IC90: read-out: IC90, antibacterial activity against Mtb H37Rv
[7] = system: J774 murine macrophages; assay: Cytotoxicity assay on macrophages (resazurin); assay type: cell-based; conditions: 24 h exposure, read-out: Toxicity against J774 macrophages CC50
Protocol: as §4, §5

[8] = SI = CC50 (J774 macrophages)/IC50
[9] = Table S2, promastigotes, 48 h, read-out: L. amazonensis IC50 (promastigote)
[10] = read-out: IC50 against L. amazonensis amastigotes
[11] = Table S3, intracellular amastigotes, 48 h, read-out: L. amazonensis IC50 (amastigote)

Row | Compound | IC50 [1] [µM] | IC50 [2, 9] [µM] | IC50 [3] [µM] | IC50 [4, 10] [µM] | IC50 [6] [µM] | IC90 [6] [µM] | CC50 ([7]; Table S2) [µM] | CC50 ([7]; Table S3) [µM] | IC50 [4, 11] [µM] | also measured
1 | CCCCCCCCCCCCCCCCOP(=O)([O-])OCC[N+](C)(C)C [Miltefosine, reference compound] |  |  |  |  |  |  |  |  |  | IC50 ([1]; Leishmania donovani): 0.2 ± 0.02 µM; L. donovani promastigote selectivity index (SI) [1, 8]: 680.5; IC50 ([2]; Leishmania amazonensis, read-out: IC50 against L. amazonensis (promastigote)): 47.9 µM; L. amazonensis promastigote selectivity index (SI) [2, 8]: 2.8; IC50 ([3]; Leishmania donovani, J774): 7.1 µM; L. donovani amastigote selectivity index (SI) [3, 8]: 19.1; IC50 ([4]; Leishmania amazonensis, J774, Table S3, intracellular amastigotes, 48 h, read-out: L. amazonensis IC50 (amastigote)): 47.6 ± 7.4 µM; IC50 ([4]; Leishmania amazonensis, J774, read-out: IC50 against L. amazonensis amastigotes): 136 µM; L. amazonensis amastigote selectivity index (SI) [4]: 2.9; L. amazonensis amastigote selectivity index (SI) ([4]; listed as miltefosine): 2.87; CC50 at 24 h ([5]; Table S2): 136 ± 10.3 µM; CC50 at 24 h ([5]; Table S3): 136 µM
2 | COC(=O)CNC(=O)c1c(-c2ccc(F)cc2)[n+]([O-])c2cc(C)ccc2[n+]1[O-] [Compound 4m, N-(6-Methyl-1,4-dioxide-3-(4-fluorophenyl)-quinoxaline-2-carbonyl)glycine methyl ester] | 84.8 ± 8.9 | 62.8 ± 1.6 | 285 ± 115 | 74.4 | 18.3 | 36.5 | 454 | 454 |  | 
3 | N-(6-Methoxy-1,4-dioxide-3-(4-florophenyl)quinoxaline-2-carbonyl)glycine methyl ester [Compound 4i] | 46.9 ± 14.2 | 117 ± 8 | 71 ± 11 |  | 47.2 | 66.5 | 379 ± 49.9 |  | 12.9 ± 1.7 | 
4 | N-(1,4-Dioxide-3-((4-fluorophenyl)quinoxaline-2-carbonyl)glycine methyl ester [Compound 4d] | 165 ± 10.2 | 125 ± 1.43 | 234 ± 5.9 | 9.8 | 28.6 | 47.7 | 539 | 539 |  | 
5 | COC(=O)CNC(=O)c1c(-c2cccc(Cl)c2)[n+]([O-])c2cc(OC)ccc2[n+]1[O-] [Compound 4g, N-(6-Methoxy-1,4-dioxide-3-(3-chlorophenyl)quinoxaline-2-carbonyl)glycine methyl ester] | 40 ± 6.7 | 112 ± 13.7 | 77.5 ± 6.2 |  | 50 | 71.9 |  |  | 23.2 ± 4.1 | 
6 | N-(6-Methoxy-1,4-dioxide-3-(4-trifloromethylphenyl)quinoxaline-2-carbonyl)glycine methyl ester [Compound 4h] | 25.3 ± 1.55 | 122 ± 9.9 | 39.5 ± 7.5 |  | 8.46 | 12.4 | 554 | 554 | 20.9 ± 4 | 
7 | COC(=O)CNC(=O)c1c(-c2ccccc2C)[n+]([O-])c2cc(OC)ccc2[n+]1[O-] [Compound 4k, N-(6-Methoxy-1,4-dioxide-3-(2-methylphenyl)quinoxaline-2-carbonyl)glycine methyl ester] | 23.9 ± 2.2 | 117 ± 14.3 | 72.2 ± 18.6 | 7.2 | 25.9 | 44.6 | 330 ± 75.5 |  |  | 
